According to publication PMC4738305, “Metabolism and Disposition of Aditoprim in Swine, Broilers, Carp and Rats” (Scientific Reports, 2016):
Where two headings read alike, the source gives them in different places.

Key:
[1] = Concentration and elimination of ADP and its metabolites in liver, kidney, muscle, fat/skin after oral ^3H-ADP for 7 d; assay type: in vivo, carp; settings: for concentration at 0.25 d / concentration at 1 d / concentration at 3 d / concentration at 7 d / concentration at 14 d / concentration at 21 d: carp, oral; for half-life: po
Procedure: (§1) A total of 36 animals from each species (swine n = 24) were randomly assigned to six equal treatment groups and administered a single daily dose of ^3 H-ADP at 5 mg/kg b. w. (0.1 Ci/g) through oral gavage for 7 consecutive days. All the animals were housed on the basis of their group in the cages or aquaria throughout the whole study period. A group of animals was slaughtered through exsanguination under diethyl ether inhalation of anesthesia in the period of 6 h, 1, 3, 7, 14, and 21 d after the administration. The blood samples were immediately collected into the heparinized tubes and was centrifuged at 1920 × g at 4 °C for 10 min to obtain the plasma. The tissues from the heart, liver, spleen, lung, kidney, craw (broilers), stomach, intestine, fat, skin, muscle, thymus, pancreas, bile, bladder, hair (scale for carp), genital gland, adrenal glands, swim bladder (carp), brain, lymph, and bursa (broilers) were carefully excised and collected. The tissues were thoroughly rinsed with the deionized water to remove the residuary blood, blotted to dryness, and finally to perform the homogenization. In order to avoid cross-contamination the dissecting instruments were washed during the tissue procurements. The blank tissues were collected in order to provide control matrices. The total radioactivity levels in each sample were determined through LSC. The samples extracted from the plasma, bile, and tissues of the liver, kidney, muscle, and fat/skin were analyzed through LC/MS-IT-TOF and v. ARC radiometric detection for metabolite profiling. The blank samples were used as control to determine the background radioactivity or the endogenous nondrug-related ions observed within respective matrices or their extracts.
(§2) The feces and tissues (2 g) were diluted with a mixture of methanol and chloroform (1:3, v:v; 2 mL/g homogenate). This procedure was carried out in a fume hood for the safety aspects. The pH value was adjusted to 9.0 with NH4OH. The mixture was vortexed and sonicated for 5 min and 10 min, respectively, and finally the samples were centrifuged at 7690 × g for 10 min. The supernatant was aspirated and then transferred into a new centrifuge tube. The obtained pellet was again subjected to the same process of vortex, ultrasonication, extraction, and centrifugation. The combined supernatant was concentrated under a stream of nitrogen in a water bath at 40 °C. The residue was reconstituted with 0.3 mL of methanol–water (1:9, v:v) before the injection into the LC-v. ARC/MS-IT-TOF system for analysis.
(§3) ADP and its metabolites in the prepared samples were determined with a v. ARC radiometric detector and a hybrid IT/TOF mass spectrometer connected to the HPLC system (Shimadzu Corp., Kyoto, Japan). The LC system was equipped with a solvent delivery pump (LC-20AD), an auto-sampler (SIL-20AC), a degasser (DGU-20 A 3), a photodiode array detector (SPD-M20A), a communication base module (CBM-20 A), and a column oven (CTO-20AC). The chromatographic separation was achieved by using an Agilent extend-C18 column (2.1 mm × 150 mm, 5 μm) with a gradient mobile phase of A (0.01% ammonia and 5 mM ammonium acetate in water) and B (methanol) at a flow rate of 0.2 mL/min. The column temperature was maintained at 35 °C. Various HPLC methods were performed because of the large number of different metabolites to be analyzed. For the porcine sample, method 1 started at 5% B and increased to 20% B over 35 min, then to 55% B by 60 min, followed by re-equilibration for another 10 min. For the remaining samples, method 2 started at 10% B and increased to 60% B over 30 min, subsequently was maintained at 60% B for an additional 10 min, and then changed to 90% B over 2 min and maintained for 2 min. Afterwards, a re-equilibration step (decreased to 10% B over 1 min and maintained at 10% B for additional 9 min) was followed. For each matrix, more than 98% of the radioactivity injected into the column was eluted during the running time of the gradient program. […]

[2] = as above; assay type: in vivo, broilers; settings: for concentration at 0.25 d / concentration at 1 d / concentration at 3 d / concentration at 7 d / concentration at 14 d: oral; for half-life: po
Procedure: as §1, §2, §3

[3] = carp kidney, after 5 mg/kg b. w. for 7 days, read-out: t1/2 of the individual compound (converted)
[4] = carp liver, after 5 mg/kg b. w. for 7 days, read-out: t1/2 of the individual compound (converted)
[5] = carp muscle, after 5 mg/kg b. w. for 7 days, read-out: t1/2 of the individual compound (converted)
[6] = carp skin, after 5 mg/kg b. w. for 7 days, read-out: t1/2 of the individual compound (converted)
[7] = tissues (liver, kidney, muscle, fat/skin), 5 mg/kg, carp tissues, read-out: t1/2 of the individual compound, range over tissues
[8] = broiler chicken, kidney, 5 mg/kg b.w.
[9] = broiler chicken, muscle, 5 mg/kg b.w.
[10] = broilers, muscle, 5 mg/kg b. w.
[11] = broiler kidney, after 5 mg/kg b. w. for 7 days, read-out: t1/2 of the individual compound (converted)
[12] = broiler liver, after 5 mg/kg b. w. for 7 days, read-out: t1/2 of the individual compound (converted)
[13] = tissues (liver, kidney, muscle, fat/skin), 5 mg/kg, broilers tissues, read-out: t1/2 of the individual compound, range over tissues

## COc1cc(Cc2cnc(N)nc2N)cc(OC)c1N(C)C [A0, 2,4-Diamino-5-[4-(dimethylamino)-3,5-dimethoxybenzyl] pyrimidine]
[1]; carp liver, kidney, muscle, skin, over the sampling times
  share of the sample radioactivity in the detected tissues: more than 42%
[1]; kidney, 5 mg/kg b.w.
  concentration at 0.25 d: 38900 ± 8000 ng/g
  concentration at 1 d: 6470 ± 1250 ng/g
  concentration at 3 d: 3010 ± 550 ng/g
  concentration at 7 d: 1190 ± 80 ng/g
  concentration at 14 d: 680 ± 80 ng/g
  concentration at 21 d: 90 ± 20 ng/g
[1]; liver, 5 mg/kg b. w.
  concentration at 0.25 d: 13200 ± 3700 ng/g
  concentration at 1 d: 5750 ± 950 ng/g
  concentration at 3 d: 2370 ± 470 ng/g
  concentration at 7 d: 390 ± 100 ng/g
  concentration at 14 d: 260 ± 40 ng/g
  concentration at 21 d: 90 ± 10 ng/g
[1]; muscle, 5 mg/kg b.w.
  concentration at 0.25 d: 1960 ± 530 ng/g
  concentration at 1 d: 1690 ± 410 ng/g
  concentration at 3 d: 870 ± 180 ng/g
  concentration at 7 d: 410 ± 90 ng/g
  concentration at 14 d: 60 ± 10 ng/g
[1]; skin, 5 mg/kg b. w.
  concentration at 0.25 d: 3040 ± 520 ng/g
  concentration at 1 d: 2320 ± 670 ng/g
  concentration at 3 d: 1330 ± 150 ng/g
  concentration at 7 d: 800 ± 160 ng/g
  concentration at 14 d: 60 ± 10 ng/g
[1]; [3]
  half-life: 3.72 days
[1]; [4]
  half-life: 6.63 days
[1]; [5]
  half-life: 2.87 days
[1]; [6]
  half-life: 2.4 days
[1]; [7]
  half-life: 2.4 to 6.63 days
[2]; [8]
  concentration at 0.25 d: 15400 ± 2120 ng/g
  concentration at 1 d: 7240 ± 1020 ng/g
  concentration at 3 d: 1150 ± 440 ng/g
  concentration at 7 d: 170 ± 20 ng/g
  concentration at 14 d: 40 ± 10 ng/g
[2]; [9]
  concentration at 0.25 d: 530 ± 220 ng/g
[2]; broilers liver, kidney, muscle, fat, over the sampling times
  share of the sample radioactivity in the detected tissues: more than 42%
[2]; broilers, fat, 5 mg/kg b. w.
  concentration at 0.25 d: 780 ± 240 ng/g
  concentration at 1 d: 180 ± 60 ng/g
  concentration at 3 d: 140 ± 20 ng/g
  concentration at 7 d: 60 ± 10 ng/g
[2]; broilers, liver, 5 mg/kg b. w.
  concentration at 0.25 d: 8040 ± 1400 ng/g
  concentration at 1 d: 1860 ± 580 ng/g
  concentration at 3 d: 1150 ± 440 ng/g
  concentration at 7 d: 580 ± 80 ng/g
  concentration at 14 d: 130 ± 50 ng/g
[2]; [10]
  concentration at 1 d: 330 ± 100 ng/g
  concentration at 3 d: 220 ± 30 ng/g
  concentration at 7 d: 30 ng/g
[2]; broiler fat, after 5 mg/kg b. w. for 7 days, read-out: t1/2 of the individual compound (converted)
  half-life: 4290 min
[2]; [11]
  half-life: 3330 min
[2]; [12]
  half-life: 4900 min
[2]; broiler muscle, after 5 mg/kg b. w. for 7 days, read-out: t1/2 of the individual compound (converted)
  half-life: 2400 min
[2]; [13]
  half-life: 2400 to 4900 min

## CNc1c(OC)cc(Cc2cnc(N)nc2N)cc1OC [A1, N-monodesmethyl-ADP]
[1]; kidney, 5 mg/kg b.w.
  concentration at 0.25 d: 7990 ± 1650 ng/g
  concentration at 1 d: 1730 ± 330 ng/g
  concentration at 3 d: 820 ± 150 ng/g
  concentration at 7 d: 380 ± 30 ng/g
[1]; liver, 5 mg/kg b. w.
  concentration at 0.25 d: 1930 ± 250 ng/g
  concentration at 1 d: 770 ± 130 ng/g
  concentration at 3 d: 160 ± 30 ng/g
  concentration at 7 d: 20 ng/g
[1]; muscle, 5 mg/kg b.w.
  concentration at 0.25 d: 300 ± 80 ng/g
  concentration at 1 d: 270 ± 70 ng/g
  concentration at 3 d: 100 ± 20 ng/g
[1]; skin, 5 mg/kg b. w.
  concentration at 0.25 d: 550 ± 90 ng/g
  concentration at 1 d: 450 ± 130 ng/g
  concentration at 3 d: 140 ± 20 ng/g
  concentration at 7 d: 50 ± 10 ng/g
[1]; [3]
  half-life: 2.81 days
[1]; [4]
  half-life: 1.09 days
[1]; [5]
  half-life: 2.05 days
[1]; [6]
  half-life: 1.99 days
[1]; [7]
  half-life: 1.09 to 2.81 days
[2]; [8]
  concentration at 0.25 d: 6060 ± 970 ng/g
  concentration at 1 d: 2920 ± 530 ng/g
  concentration at 3 d: 370 ± 100 ng/g
[2]; [9]
  concentration at 0.25 d: 200 ± 80 ng/g
[2]; broilers, fat, 5 mg/kg b. w.
  concentration at 0.25 d: 300 ± 100 ng/g
  concentration at 1 d: 60 ± 20 ng/g
[2]; broilers, liver, 5 mg/kg b. w.
  concentration at 0.25 d: 3090 ± 680 ng/g
  concentration at 1 d: 740 ± 120 ng/g
  concentration at 3 d: 370 ± 100 ng/g
[2]; [10]
  concentration at 1 d: 90 ± 20 ng/g
[2]; [11]
  half-life: 979 min
[2]; [12]
  half-life: 1510 min
[2]; [13]
  half-life: 979 to 1510 min

## COc1cc(Cc2cnc(N)nc2N)cc(OC)c1N [A2, N-didesmethyl-ADP]
[1]; kidney, 5 mg/kg b.w.
  concentration at 0.25 d: 780 ± 160 ng/g
  concentration at 1 d: 60 ± 10 ng/g
[1]; liver, 5 mg/kg b. w.
  concentration at 0.25 d: 440 ± 60 ng/g
  concentration at 1 d: 240 ± 40 ng/g
[1]; skin, 5 mg/kg b. w.
  concentration at 0.25 d: 70 ± 10 ng/g
  concentration at 1 d: 50 ± 10 ng/g
[2]; [8]
  concentration at 0.25 d: 1200 ± 80 ng/g
  concentration at 1 d: 550 ± 140 ng/g
[2]; [9]
  concentration at 0.25 d: 60 ± 20 ng/g
[2]; broilers, fat, 5 mg/kg b. w.
  concentration at 0.25 d: 30 ± 10 ng/g
[2]; broilers, liver, 5 mg/kg b. w.
  concentration at 0.25 d: 380 ± 50 ng/g
  concentration at 1 d: 190 ± 50 ng/g
[2]; [10]
  concentration at 1 d: 10 ng/g
